Measured values as given in publication PMC11720353, “Clove Essential Oil as a Source of Antitumoral Compounds Capable of Crossing the Blood–Brain Barrier: A Focus on the Effects of β-Caryophyllene and Eugenol in a Glioblastoma Cell Line” (International Journal of Molecular Sciences, 2024).

Tests used:
U87 cells = assay: Metabolic activity (Alamar blue) assay and HSA synergy analysis; assay type: cell-based, human; details: EU 2.5, 25, 200 µM or BCA 1.25, 12.5, 125 µM alone, 24-72 h
Method: To evaluate the cytotoxic/antiproliferative potential of BCA and/or EU, the U87 and HMC3 cells were seeded, in triplicate, into 48-well culture plates (4 × 10^4 cells/well). After 24 h, the medium was replaced, and the cells were treated either with the vehicle (ethanol) or with different concentrations of EO single molecules, diluted in ethanol alone ([…]; BCA: 1.25 µM, µM, 125 µM) or in combination (EU 2 µM and BCA 1.25 µM; EU 20 µM and BCA 12.5 µM; and EU 200 µM and BCA 125 µM) in order to evaluate the possible synergistic effects. The final concentration of ethanol in the cell medium was kept lower than 0.1%. Non-treated cells were considered the control condition. Metabolic activity was evaluated using a modified Alamar blue® assay, as previously described. […] After 2 h of incubation at 5% CO2 and 37 °C, the absorbance was read at 570 and 600 nm in a BioTeck (BioTek Instruments, Inc., Winooski, VT, USA). The absorbance results were obtained using the Gen5 program. The metabolic activity was then calculated by the following equation: Metabolicactivity %=A570−A600 oftreated cells/A570−A600 ofcontrol cells×100 All data were analyzed using the software GraphPad Prism v.9.00 (GraphPad Software, San Diego, CA, USA). All in vitro experiments were performed in triplicate, and the acquired results were expressed as means ± SEM. […]

in vivo = details: male, Sprague-Dawley, rat; for Kp at 60 min: R (ratio of concentration between CSF and bloodstream)
Method: Male Sprague-Dawley rats (200–250 g) were purchased from the Charles River laboratories (Calco, Italy). BCA was administered to rats by intravenous and oral routes in order to evaluate the pharmacokinetic profiles in the bloodstream and cerebrospinal fluid (CSF). For the intravenous administration, BCA EO (84% w/w BCA content) was dissolved in ethanol to obtain a final BCA concentration of 8 mg/mL. A group (n = 4) of rats, fasted for 24 h, was anesthetized during the experimental period and then received via a femoral intravenous infusion (rate = 10 μL/min; 5 min) 50 µL of the 8 mg/mL ethanolic solution (BCA dose 2 mg/kg). This dosage was chosen basing on a previous study where BCA was intravenously administered to rats at a dose of about 1.5 mg/kg as a minor component of Artemisiae argyi Folium EO (5.3% w/w). For oral administration, BCA EO was dissolved in corn oil to obtain a final BCA concentration of 20 mg/mL. A total of 500 µL of this corn oil solution was orally administered by gavage to a group (n = 4) of rats kept fasting for 24 h (BCA dose 50 mg/kg).
At the end of the intravenous and oral administrations and at fixed time points, blood samples (100 μL) were collected. Moreover, CFS samples (about 30 μL) were withdrawn using the cisternal puncture method previously described. This method requires a single needle stick and allows the collection of serial (about 30 μL) CSF samples that are virtually blood-free. A total volume of a maximum of 120 μL of CSF/rat (i.e., four 30 μL samples/rat) was collected during the experimental session, choosing the time points (n = 4) to allow the restoration of the CSF physiological volume. The CSF samples (10 μL) were immediately analyzed via HPLC (see below) for the quantification of BCA. For the BCA analysis in the bloodstream, the blood samples (n = 4) were immediately added to 200 μL of ice-cold CH3CN, then 100 μL of the internal standard dissolved in CH3CN (100 μM GER-UDCA, obtained by the conjugation of geraniol with ursodeoxycholic acid) was further inserted. The samples were centrifuged at 16,000× g for 5 min, then about 300 μL of the supernatant was withdrawn and further centrifuged. Finally, 10 μL was analyzed via HPLC (see below) for BCA quantification. A blood sample (100 μL) was collected from each rat before the administration of the compound and was used as a control. The control samples were immediately added to 300 μL of ice-cold CH3CN in the absence of the internal standard and then treated as described above.
The BCA was quantified by the HPLC method, using a chromatographic apparatus that consisted of a modular system (model LC-10 AD VD pump and model SPD-10A VP variable wavelength UV−vis detector; Shimadzu, Kyoto, Japan) and an injection valve with a 20 μL sample loop (model 7725; Rheodyne, IDEX, Torrance, CA, USA). The separations were performed on a 5 μm Hypersil BDS C-18 column (150 mm × 4.6 mm i.d.; ThermoFisher Scientific S.p.A., Milan, Italy) equipped with a guard column packed with the same Hypersil material at room temperature by injecting 10 µL of the samples into the apparatus. Data were acquired and processed using CLASS-VP software, version 7.2.1 (Shimadzu Italia, Milan, Italy), installed on a personal computer. The mobile phase consisted of an isocratic mixture of water and acetonitrile at a ratio of 10:90 (v/v), with a flow rate of 1 mL/min. The detector was set at 205 nm. The retention times obtained were 7.5 min for BCA and 5.6 min for GER-UDCA.
The chromatographic precision was evaluated by repeated analyses (n = 6) of the same sample solution containing 100 μM (20.435 µg/mL) BCA dissolved in a mixture of water and CH3CN 25:75 (v/v). The chromatographic precision, expressed as the relative standard deviation (RSD) value, was 0.84%. […]

[1] = iv, 2 mg/kg, cerebrospinal fluid (CSF)
[2] = po, 50 mg/kg, cerebrospinal fluid (CSF)

C=C1CC/C=C(\C)CC[C@@H]2[C@@H]1CC2(C)C [BCA, β-Caryophyllene]
reduction in metabolic activity, single compounds (U87 cells): No reduction
bioavailability (in vivo; F (absolute bioavailability)): 2.11 ± 0.03%
half-life (in vivo; iv, 2 mg/kg): 49.7 ± 2 min
time at which CSF concentration decreased to zero (in vivo; iv, 2 mg/kg): ≤ 150 min
time at which bloodstream concentration decreased to zero (in vivo; iv, 2 mg/kg): ≤ 180 min
AUC (in vivo; iv, 2 mg/kg, bloodstream): 108000 ng·h/mL
AUC (in vivo; [1]): 6290 ng·h/mL
Cmax (in vivo; [1]): 8000 ± 800 ng/mL
Kp at 60 min (in vivo; iv, 2 mg/kg): 0.08 ± 0.01
Kp at 30 min (in vivo; iv, 2 mg/kg, R (ratio of concentration between CSF and bloodstream) at CSF Tmax): 0.13 ± 0.01
Tmax (in vivo; [1]): 30 min
Cmax, bloodstream (in vivo; po, 50 mg/kg): 22530 ± 90 ng/mL
time at which CSF concentration decreased to zero (in vivo; po, 50 mg/kg): 120 min
time at which bloodstream concentration decreased to 0 (in vivo; po, 50 mg/kg): 300 min
R (ratio of concentration between CSF and bloodstream) at CSF Tmax (in vivo; po, 50 mg/kg, 90 min): 0.019 ± 0.002
AUC (in vivo; po, 50 mg/kg, bloodstream): 56800 ng·h/mL
AUC (in vivo; [2]): 313 ng·h/mL
Cmax (in vivo; po, 50 mg/kg, bloodstream): 22500 ± 900 ng/mL
Cmax (in vivo; [2]): 420 ± 40 ng/mL
Kp at 60 min (in vivo; po, 50 mg/kg): ~0.01
Kp at 90 min (in vivo; po, 50 mg/kg, R (ratio of concentration between CSF and bloodstream) at CSF Tmax): ~0.02
Tmax (in vivo; po, 50 mg/kg, bloodstream): 60 min
Tmax (in vivo; [2]): 90 min
